The values below come from PubChem BioAssay (NCI).

Among the test systems are HOP-18 NSCLC; XF 498 CNS; DMS 273 small cell lung; DMS 114 small cell lung; LXFL 529 NSCLC; M19-MEL melanoma; RXF-631 renal; P388 leukemia; SN12K1 renal; P388/ADR leukemia.
Assay in all cases: NCI tumour cell line growth inhibition, 48 h

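Briefly, cells in 96-well plates were exposed to five compound concentrations for 48 h, and endpoints were estimated by linear interpolation. TGI marks complete inhibition of growth.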 Where only a bound is given, the exact number is not on record here.

Take `c1ccc2c(c1)CCCC/C2=N/OCC1CO1` (stereo not given): the TGI with HOP-18 NSCLC is above 100 µM; in the assay on XF 498 CNS, 77.3 µM; with DMS 273 small cell lung it was above 100 µM; in the assay with DMS 114 small cell lung, above 100 µM; with LXFL 529 NSCLC, above 100 µM.

`O=C(O)/C=C\C(=O)Nc1ccc(S(=O)(=O)c2ccc(NC(=O)/C=C\C(=O)O)cc2)cc1`: the TGI in the assay with M19-MEL melanoma, in the assay with XF 498 CNS, in the assay with DMS 114 small cell lung and in the assay on LXFL 529 NSCLC was above 100 µM throughout.

In the case of `O=C1c2cccc(O)c2C(=O)c2c(O)cc(CO)cc21`, the TGI in the assay on HOP-18 NSCLC, in the assay on XF 498 CNS, in the assay with DMS 273 small cell lung, in the assay with DMS 114 small cell lung, in the assay on RXF-631 renal and in the assay with LXFL 529 NSCLC was above 100 µM in each case.

As to `COc1ccc(/C=N/n2c(C)nc3c(sc(=S)n3-c3ccccc3)c2=O)cc1`, the TGI in the assay on HOP-18 NSCLC, in the assay with M19-MEL melanoma and in the assay on LXFL 529 NSCLC was above 100 µM throughout.

With `O=C(O)CCCCCCCCC(=O)O`, the TGI in the assay with HOP-18 NSCLC was above 500 µM; in the assay with M19-MEL melanoma, above 500 µM; in the assay with P388 leukemia it was above 281 µM; in the assay with XF 498 CNS, above 50 µM; with DMS 273 small cell lung, above 500 µM; with SN12K1 renal, above 500 µM. The values for the TGI in the assay on DMS 114 small cell lung and with P388/ADR leukemia were above 500 µM and above 500000 nM, respectively.

`CSc1nc2c(ncn2C2OC(CO)C(O)C(O)C2O)c(=O)[nH]1` (stereo not given): the TGI in the assay with HOP-18 NSCLC, in the assay on M19-MEL melanoma, in the assay with P388 leukemia, in the assay on XF 498 CNS, in the assay with DMS 273 small cell lung and in the assay with SN12K1 renal was above 100 µM in each case. The TGI in the assay with DMS 114 small cell lung is above 100 µM.

In the case of `COc1cc(C2c3cc4c(cc3[C@@H](Nc3ccc5c(c3)OCO5)C3COC(=O)[C@H]23)OCO4)cc(OC)c1O` (stereo not given in full), the TGI with HOP-18 NSCLC was 11 µM; in the assay with M19-MEL melanoma it was above 100 µM; in the assay on P388 leukemia, 0.393 µM; in the assay on XF 498 CNS, 16.7 µM; in the assay with DMS 273 small cell lung, 1.4 µM; in the assay with SN12K1 renal it was 5.82 µM. For the same compound, in the assay on P388/ADR leukemia, the TGI turned out to be 710 nM.

In the case of `O=C(NN1C(=O)CSC1c1cccc(F)c1)c1ccncc1` (stereo not given), the TGI in the assay with XF 498 CNS, in the assay on DMS 273 small cell lung, with DMS 114 small cell lung, in the assay with RXF-631 renal and in the assay on LXFL 529 NSCLC was above 100 µM throughout.
